Laboratory results as given in US6653306B1, “Epoxy-steroidal aldosterone antagonist and angiotensin II antagonist combination therapy” (G.D. Searle & Co., priority 1995, dated 2003).

Assays:
[1] = molecular target: angiotensin II AT1 receptor; test: Assay A: Angiotensin II binding activity (125I-AII displacement, rat uterine membrane preparation)
rabbit aortic rings = test: Assay B: In vitro vascular smooth muscle response for AII (antagonist activity, pA2); assay type: cell-based; settings: Oryctolagus cuniculus, in vitro vascular smooth muscle response; two values per cell separated by / are separate determinations; read-out: Assay B pA2 (converted)
Method: Assay B: In Vitro Vascular Smooth Muscle-response for AII
The compounds of the invention were tested for antagonist activity in rabbit aortic rings. Male New Zealand white rabbits (2-2.5 kg) were sacrificed using an overdose of pentobarbital and exsanguinated via the carotid arteries. The thoracic aorta was removed, cleaned of adherent fat and connective tissue and then cut into 3-mm ring segments. The endothelium was removed from the rings by gently sliding a rolled-up piece of filter paper into the vessel lumen. The rings were then mounted in a water-jacketed tissue bath, maintained at 37° C., between moveable and fixed ends of a stainless steel wire with the moveable end attached to an FT03 Grass transducer coupled to a Model 7D Grass Polygraph for recording isometric force responses. The bath was filled with 20 ml of oxygenated (95% oxygen/5% carbon dioxide) Krebs solution of the following composition (mM): 130 NaCl, […], 15 KCl, 1.2 NaH2PO4, 1.2 MgSO4, 2.5 CaCl2, and 11.4 glucose. The preparations were equilibrated for one hour before approximately one gram of passive tension was placed on the rings. Angiotensin II concentration-response curves were then recorded (3×10^−10 to 1×10^−5 M). Each concentration of AII was allowed to elicit its maximal contraction, and then AII was washed out repeatedly for 30 minutes before rechallenging with a higher concentration of AII. Aorta rings were exposed to the test antagonist at […] for 5 minutes before challenging with AII. Adjacent segments of the same aorta ring were used for all concentration-response curves in the presence or absence of the test antagonist. The effectiveness of the test compound was expressed in terms of pA2 values and were calculated according to H. O. Schild [Br. J. Pharmacol, Chemother., 2,189-206 (1947)]. The pA2 value is the concentration of the antagonist which increases the EC50 value for AII by a factor of two. Each test antagonist was evaluated in aorta rings from two rabbits.

Structure (SMILES) | IC50 [1] [nM] | Kb (rabbit aortic rings) [nM]
CCCCCc1nc(CCCCC)n(Cc2ccc(-c3ccccc3-c3nnn[nH]3)cc2)n1 [Compound 13] | – | 2
CCCCc1nc(CCC)n(Cc2ccc(-c3ccccc3-c3nnn[nH]3)cc2)n1 [Compound 15] | 16 | 4.9
CCCCc1nc(CCc2ccccc2)n(Cc2ccc(-c3ccccc3-c3nnn[nH]3)cc2)n1 [Compound 25] | 480 | 158
CCCCc1nc(CNC(=O)OC(C)(C)C)nn1Cc1ccc(-c2ccccc2-c2nnn[nH]2)cc1 [Compound 35] | 41 | 56.2
CCCCc1nc(CC(OCC)OCC)n(Cc2ccc(-c3ccccc3-c3nnn[nH]3)cc2)n1 [Compound 37] | 340 | 126
CCCCc1nc(CC)nn1Cc1ccc(-c2ccccc2-c2nnn[nH]2)cc1 [Compound 39] | 10 | 13.2
CCCCc1nc(CCCO)nn1Cc1ccc(-c2ccccc2-c2nnn[nH]2)cc1 [Compound 45] | 4.4 | 3.89
CCCCc1nc(C(F)F)nn1Cc1ccc(-c2ccccc2-c2nnn[nH]2)cc1 [Compound 47] | 21 | 14.1
CCCCc1nc(C=O)nn1Cc1ccc(-c2ccccc2-c2nnn[nH]2)cc1 [Compound 49] | 120 | 87.1
CCCCc1nc(C(=O)Cc2ccccc2)nn1Cc1ccc(-c2ccccc2-c2nnn[nH]2)cc1 [Compound 50] | 54 | 19.5
CCCCc1nc(C(F)(F)Cc2ccccc2)nn1Cc1ccc(-c2ccccc2-c2nnn[nH]2)cc1 [Compound 51] | 8.7 | 4.07
CCCCc1nc(C(=O)O)nn1Cc1ccc(-c2ccccc2-c2nnn[nH]2)cc1 [Compound 52] | 100 | 7.24
CCCCc1ncn(Cc2ccc(-c3ccccc3-c3nnn[nH]3)cc2)n1 [Compound 54] | 3100 | 955
CCCCc1nc(CCCC2CCCCC2)nn1Cc1ccc(-c2ccccc2-c2nnn[nH]2)cc1 [Compound 58] | 140 | 355
CCCCc1nc(CC23CC4CC(CC(C4)C2)C3)nn1Cc1ccc(-c2ccccc2-c2nnn[nH]2)cc1 [Compound 62] | 26 | 2.04
CCCCc1nc(CCC(=O)O)nn1Cc1ccc(-c2ccccc2-c2nnn[nH]2)cc1 [Compound 63] | 61 | 17
CCCCc1nc(C2CCCCC2)n(Cc2ccc(-c3ccccc3-c3nnn[nH]3)cc2)n1 [Compound 65] | 23 | 14.1

Structure (SMILES) | IC50 [1] [nM] | Kb (rabbit aortic rings) [nM]
CCCCc1nc(CCCN)nn1Cc1ccc(-c2ccccc2-c2nnn[nH]2)cc1 [Compound 72] | 83 | 776
CCCCc1nc(CC2CCCCC2)nn1Cc1ccc(-c2ccccc2-c2nnn[nH]2)cc1 [Compound 74] | 6.5 | 2.75
CCCCCCn1nc(CCCC)n(Cc2ccc(-c3ccccc3-c3nn[nH]n3)cc2)c1=O [Compound 85] | 8.7 | 1.26
CCCCCn1nc(CCCC)n(Cc2ccc(-c3ccccc3-c3nn[nH]n3)cc2)c1=O [Compound 90] | 5.6 | 1
CCCCc1nn(C(=O)CCC)c(=O)n1Cc1ccc(-c2ccccc2-c2nn[nH]n2)cc1 [Compound 95] | 66 | 6.31
CCCCc1nn(CC(=O)c2cc(OC)ccc2OC)c(=O)n1Cc1ccc(-c2ccccc2-c2nn[nH]n2)cc1 [Compound 96] | 21 | 10
CCCCc1nn(CC(OCc2ccccc2)c2ccccc2)c(=O)n1Cc1ccc(-c2ccccc2-c2nn[nH]n2)cc1 (stereo not drawn) [Compound 97] | 280 | 20
CCCCc1nn(CC(O)c2cc(OC)ccc2OC)c(=O)n1Cc1ccc(-c2ccccc2-c2nn[nH]n2)cc1 (stereo not drawn) [Compound 98] | 22 | 7.94
CCCCc1nn(Cc2ccc3ccccc3c2)c(=O)n1Cc1ccc(-c2ccccc2-c2nn[nH]n2)cc1 [Compound 99] | 280 | 316
CCCCc1nn(C(CC(=O)OCC)C(=O)c2ccccc2)c(=O)n1Cc1ccc(-c2ccccc2-c2nn[nH]n2)cc1 (stereo not drawn) [Compound 101] | 36 | 15.8
CCCCc1nn(C(C)(C)C(=O)c2ccccc2)c(=O)n1Cc1ccc(-c2ccccc2-c2nn[nH]n2)cc1 [Compound 102] | 43 | 20
CCCCc1nn(CCCCC(=O)O)c(=O)n1Cc1ccc(-c2ccccc2-c2nn[nH]n2)cc1 [Compound 103] | 12 | 10
CCCCc1nn(CC2CC2)c(=O)n1Cc1ccc(-c2ccccc2-c2nn[nH]n2)cc1 [Compound 104] | 15 | 10
CCCCn1nc(C(C#N)CCC)n(Cc2ccc(-c3ccccc3-c3nn[nH]n3)cc2)c1=O (stereo not drawn) [Compound 106] | 48 | 20
CCCCc1nc2c(O)nnc(CCC)c2n1Cc1ccc(-c2ccccc2-c2nn[nH]n2)cc1 [Compound 114] | – | 398
CCCCc1nc2c(O)nncc2n1Cc1ccc(-c2ccccc2-c2nnn[nH]2)cc1 [Compound 116] | – | 316
CCCCc1nc2cnncc2n1Cc1ccc(-c2ccccc2-c2nnn[nH]2)cc1 [Compound 117] | – | 316

Continued by falling IC50 [1], values first:

IC50 [1] [nM] | Structure (SMILES) | Kb (rabbit aortic rings) [nM]
15000 | CCCCc1nc(C)n(Cc2ccc(-c3ccccc3C(=O)O)cc2)n1 [Compound 77] | 1700
12000 | CCCCc1ncn(Cc2ccc(-c3ccccc3C(=O)O)cc2)n1 [Compound 19] | 6610
5400 | CCCCc1nc(CC)n(Cc2ccc(-c3ccccc3C(=O)O)cc2)n1 [Compound 76] | 3020
3700 | CCCCc1nc(CNC(=O)CCC(NC(C)=O)C(=O)OC(C)(C)C)nn1Cc1ccc(-c2ccccc2-c2nnn[nH]2)cc1 (stereo not drawn) [Compound 41] | 2090
3100 | CCCCc1nc(CCCNC(=O)OC(C)(C)C)n(Cc2ccc(-c3ccccc3-c3nnn[nH]3)cc2)n1 [Compound 67] | 1320
2300 | CCCCc1nc(CCCC2CCCCC2)n(Cc2ccc(-c3ccccc3-c3nnn[nH]3)cc2)n1 [Compound 57] | 1000
1400 | CCCCc1nc(CN)n(Cc2ccc(-c3ccccc3-c3nnn[nH]3)cc2)n1 [Compound 36] | 1200
970 | CCCCc1ncnn1Cc1ccc(-c2ccccc2C(=O)O)cc1 [Compound 18] | 724
790 | CCCCc1nc(CC2CCCCC2)n(Cc2ccc(-c3ccccc3-c3nnn[nH]3)cc2)n1 [Compound 73] | 22.4
460 | CCCCc1nc(-c2ccccc2)n(Cc2ccc(-c3ccccc3-c3nnn[nH]3)cc2)n1 [Compound 22] | 251
370 | CCCCc1nc(CCC2CCCCC2)n(Cc2ccc(-c3ccccc3-c3nnn[nH]3)cc2)n1 [Compound 42] | 275
110 | CCCCc1nc(CCCO)n(Cc2ccc(-c3ccccc3-c3nnn[nH]3)cc2)n1 [Compound 46] | 158
91 | CCCCc1nn(CC(=O)O)c(=O)n1Cc1ccc(-c2ccccc2-c2nn[nH]n2)cc1 [Compound 87] | 15.8
65 | CCCCc1ncnn1Cc1ccc(-c2ccccc2-c2nnn[nH]2)cc1 [Compound 53] | 27.5
54 | CCCCc1nc(CCC(=O)O)n(Cc2ccc(-c3ccccc3-c3nnn[nH]3)cc2)n1 [Compound 64] | 100
35 | CCCCc1nn(CCC(C)CC(C)(C)C)c(=O)n1Cc1ccc(-c2ccccc2-c2nn[nH]n2)cc1 (stereo not drawn) [Compound 92] | 12.6
25 | CCCCc1nn(CC(=O)C23CC4CC(CC(C4)C2)C3)c(=O)n1Cc1ccc(-c2ccccc2-c2nn[nH]n2)cc1 [Compound 80] | 7.94
18 | CCCCc1nn(CCC2CCCCC2)c(=O)n1Cc1ccc(-c2ccccc2-c2nn[nH]n2)cc1 [Compound 89] | 12.6
10 | CCCCc1nc(C(OC)OC)nn1Cc1ccc(-c2ccccc2-c2nnn[nH]2)cc1 [Compound 24] | 27.5
9 | CCCCc1nn(CC(=O)OCC)c(=O)n1Cc1ccc(-c2ccccc2-c2nn[nH]n2)cc1 [Compound 86] | 15.8
7.2 | CCCCc1nc(CCC)nn1Cc1ccc(-c2ccccc2-c2nnn[nH]2)cc1 [Compound 14] | 1.45
6.4 | CCCCc1nc(CCC(C)C)n(Cc2ccc(-c3ccccc3-c3nnn[nH]3)cc2)n1 [Compound 16] | 1.12
6 | CCCc1nc(CCC)n(Cc2ccc(-c3ccccc3-c3nnn[nH]3)cc2)n1 [Compound 12] | 2.19
4.9 | CCCCc1nn(CCCC)c(=O)n1Cc1ccc(-c2ccccc2-c2nnn[nH]2)cc1 [Compound 79] | 0.631
4 | CCCCc1nc(CCC(C)C)nn1Cc1ccc(-c2ccccc2-c2nnn[nH]2)cc1 [Compound 17] | 2.29
